The source of these data is paper PMC7249156, “Tricyclic Derivative of Acyclovir and Its Esters in Relation to the Esters of Acyclovir Enzymatic Stability: Enzymatic Stability Study” (Molecules, 2020).

Series [1] can be described thus: Stability test (hydrolysis) in human plasma (80%, 37 °C). Format: in vitro ADME. As to the method:
The condition for determining the values of the observed rate constants is to observe changes in the concentration of the tested compound over time ensuring degradation of at least 80% of the compound. In plasma, hydrolysis reactions were carried out until a minimum 50% loss of the tested compound was obtained except for the extremely stable 6-(4-MeOPh)-TACV under these conditions. In this case, the observed loss was 22% during the 25-h reaction. Further carrying out of this reaction in vitro in a temperature of 37 °C was not recommended (Figure 2).
Stability tests were performed in human plasma (80%, v/v) thermostated in a water bath at 37 °C. In total, 2.50 mg of each of the analyzed compounds were weighed and dissolved in 0.5 mL of DMSO (5.0 mg/mL). For plastic screw-on tubes containing 4.0 mL of plasma, 0.8 mL of PBS buffer were added, mixed, and thermostated in a water bath. Then, 0.2 mL of the tested compound solution in DMSO (5.0 mg/mL) were added to the incubated plasma. Samples were thermostated at 37 °C and at specified intervals. After mixing, 0.2 mL of the test sample were taken and transferred to 0.4 mL of the appropriate internal standard solution (Table 1). After mixing, the samples were centrifuged for […] (5 min, 13,000 rpm). The supernatant was transferred to the tubes and analyzed by the HPLC method in a suitable phase system (Table 1). The initial concentration of the tested compounds in the plasma was 200 μg/mL, while in the analyte solution (supernatant) it was 66.7 μg/mL.
(§1) The HPLC-MS/MS method was used for analysis of the solutions hydrolyzed in plasma (80% v/v, 37 °C, 24 h) and in plasma (80%, v/v) with porcine esterase at a concentration of 5.50 × 10^−9 M (37 °C, 2 h). The samples were prepared according to the procedure described in Section 3.4.1 and Section 3.4.2, and then diluted with water in a proportion of 1:100 (v/v).

Series [2] relates to esterase from porcine liver (PLE). Kind of series: Stability test in plasma (80%, 37 °C) with porcine liver esterase. Format: in vitro ADME. The settings on record: for kobs. ± Δkobs. / t0.5: plasma 80%.
From the text: For the correct interpretation of the distribution of the tested compounds under the influence of esterase, it is necessary to know the specificity of the enzymatic reactions (Scheme 1). The biotransformation occurring during enzymatic hydrolysis can be treated as a limited capacity process and described using the Michaelis–Menten equation:(2) V=−dc/dt=Vm·c/KM+c, where: c—substance concentration, V = −(dc/dt)—rate of change of substance concentration, Vm—maximum theoretical speed of the process, and KM—Michaelis constant (numerically equal to the concentration of the substance at which its elimination occurs at a rate equal to half of Vm).
In case the value of the Michaelis constant is much higher than the concentration of the substance (KM >> c), Equation (2) can be simplified to the form of:(3) V=−dc/dt=k2/KM·cE·c=Vm/KM·c=kobs.·c, where: cE—enzyme concentration.
After transformation:(4) kobs.=k2/KM·cE=Vm/KM.
A 1 U/μL aqueous pork esterase solution was prepared by diluting the suspension with 200 μL of water. Here, 168,000 Da was used as the molecular weight of the esterase and the molar concentration of the enzyme in a determined volume of the test sample of 5.0 mL was calculated (1 μL of the enzyme solution in 5.0 mL corresponded to a concentration of 5.50 × 10^−9 M).
For plastic screw-on tubes containing 4.0 mL of plasma, 0.8 mL of PBS buffer was added, mixed, and thermostated in a water bath (37 °C). A fixed volume of enzyme (0.5–11.0 μL) was added to the incubated plasma, mixed, and thermostated for 15 min. Then, 0.2 mL of the tested compound solution in DMSO (5.00 mg/mL) were added, mixed thoroughly, and proceeded as described in Section 3.4.1.
as §1

The nature of series [3]: Stability of the analyte (supernatant) on storage. The format is physicochemical. Particulars: supernatant stored in freezer (−20 °C). The method, then:
For each substance, samples with two concentrations in the linearity range of the method were prepared. The supernatants of both solutions were analyzed by HPLC immediately after preparation and after storage at room temperature (25 °C), in a refrigerator (4 °C) and freezer compartment (−20 °C). The degree of decomposition of the tested compounds with respect to the initial value was determined.

On the set-up of series [4]: method as in PMID 18638532. Particulars: valaciclovir; cited from earlier work.

Like-named read-outs stand apart in the source and are kept apart here.

`COc1ccc(-c2cn3c(=O)c4ncn(COCCO)c4nc3[nH]2)cc1` [6-(4-MeOPh)-TACV, 3,9-Dihydro-3-[(2-hydroxyethoxy)methyl]-6-(4-methoxyphenyl)-9-oxo-5H-imidazo[1,2-a]–purine]: in series [1] (human plasma 80%), the “kobs. ± Δkobs. (pseudo-first-order rate constant of hydrolysis)” value is “(2.81 ± 0.36)·10^−6 s^−1”. Besides, the t0.5 in series [1] (human plasma 80%) was determined as 68.40 h; in series [2] (cE 2.0 U, 1.10·10^−8 M), 1560 min; in series [2] (cE 3.0 U, 1.65·10^−8 M) it was 1410 min; in series [2] (cE 4.0 U, 2.20·10^−8 M) it was 1360 min; in series [2] (cE 6.0 U, 3.30·10^−8 M), 1210 min. Moreover, in series [1] (human plasma 80%, 25-h reaction), the “observed loss of compound” value is listed as 22%. For the same molecule, the “degree of hydrolysis seen by HPLC-MS/MS” value in series [1] (plasma 80%, 24 h) was “occurred to a small extent”; in series [2] (plasma 80% with porcine esterase 5.50·10^−9 M, 2 h), “occurred to a small extent”. For the same molecule, the “kobs. ± Δkobs.” value in series [2] (cE 2.0 U, 1.10·10^−8 M) is reported as “(7.39 ± 0.49)·10^−6 s^−1”; in series [2] (cE 3.0 U, 1.65·10^−8 M) it was “(8.21 ± 0.58)·10^−6 s^−1”; in series [2] (cE 4.0 U, 2.20·10^−8 M), “(8.37 ± 0.24)·10^−6 s^−1”; in series [2] (cE 6.0 U, 3.30·10^−8 M) it was “(9.58 ± 0.39)·10^−6 s^−1”. In series [3], the “time for which analyte solution was considered stable” value (“time” below) came to 27 days.
`CC(=O)OCCOCn1cnc2c(=O)[nH]c(N)nc21` [Ac-ACV]: the “kobs. ± Δkobs. (pseudo-first-order rate constant of hydrolysis)” value in series [1] (human plasma 80%) was “(6.47 ± 0.49)·10^−5 s^−1”. The t0.5 in series [1] (human plasma 80%) was found to be 2.98 h; in series [2] (cE 2.0 U, 1.10·10^−8 M) it was 264 min; in series [2] (cE 4.0 U, 2.20·10^−8 M) it was 144 min; in series [2] (cE 6.0 U, 3.30·10^−8 M) it was 102 min; in series [2] (cE 8.0 U, 4.40·10^−8 M) it was 72 min. For the same molecule, the “kobs. ± Δkobs.” value in series [2] (cE 4.0 U, 2.20·10^−8 M) was “(7.94 ± 0.23)·10^−5 s^−1”; in series [2] (cE 6.0 U, 3.30·10^−8 M) it was “(1.15 ± 0.02)·10^−4 s^−1”; in series [2] (cE 8.0 U, 4.40·10^−8 M) it was “(1.55 ± 0.04)·10^−4 s^−1”.
As to `CCOC(=O)OCCOCn1cnc2c(=O)[nH]c(N)nc21` [Etc-ACV], the “kobs. ± Δkobs. (pseudo-first-order rate constant of hydrolysis)” value in series [1] (human plasma 80%) was “(7.99 ± 0.37)·10^−5 s^−1”. Also, the t0.5 is 2.41 h in series [1] (human plasma 80%); 17.8 min in series [2] (cE 2.0 U, 1.10·10^−8 M); 13.4 min in series [2] (cE 3.0 U, 1.65·10^−8 M); 9.6 min in series [2] (cE 4.0 U, 2.20·10^−8 M); 7.5 min in series [2] (cE 5.0 U, 2.75·10^−8 M). Moreover, the “kobs. ± Δkobs.” value is “(6.48 ± 0.35)·10^−4 s^−1” in series [2] (cE 2.0 U, 1.10·10^−8 M); “(8.60 ± 0.34)·10^−4 s^−1” in series [2] (cE 3.0 U, 1.65·10^−8 M); “(1.20 ± 0.03)·10^−3 s^−1” in series [2] (cE 4.0 U, 2.20·10^−8 M); “(1.54 ± 0.07)·10^−3 s^−1” in series [2] (cE 5.0 U, 2.75·10^−8 M). In addition, the “time” value in series [3] was determined as 27 days.
In the case of `Nc1nc2c(ncn2COCCOC(=O)c2cccnc2)c(=O)[nH]1` [Nic-ACV], the “kobs. ± Δkobs. (pseudo-first-order rate constant of hydrolysis)” value in series [1] (human plasma 80%) is “(4.31 ± 0.23)·10^−4 s^−1”. The t0.5 in series [1] (human plasma 80%) stood at 0.45 h; in series [2] (cE 3.0 U, 1.65·10^−8 M), 21.6 min; in series [2] (cE 4.0 U, 2.20·10^−8 M) it was 20.7 min; in series [2] (cE 5.0 U, 2.75·10^−8 M) it was 20.0 min; in series [2] (cE 6.0 U, 3.30·10^−8 M), 19.2 min. Besides, the “kobs. ± Δkobs.” value is given as “(5.35 ± 0.23)·10^−4 s^−1” in series [2] (cE 3.0 U, 1.65·10^−8 M); “(5.59 ± 0.50)·10^−4 s^−1” in series [2] (cE 4.0 U, 2.20·10^−8 M); “(5.77 ± 0.32)·10^−4 s^−1” in series [2] (cE 5.0 U, 2.75·10^−8 M); “(6.03 ± 0.22)·10^−4 s^−1” in series [2] (cE 6.0 U, 3.30·10^−8 M).
In the case of `CC(C)(C)C(=O)OCCOCn1cnc2c(=O)[nH]c(N)nc21` [Piv-ACV], the “kobs. ± Δkobs. (pseudo-first-order rate constant of hydrolysis)” value in series [1] (human plasma 80%) is “(2.38 ± 0.17)·10^−5 s^−1”. For the same molecule, the t0.5 is 8.09 h in series [1] (human plasma 80%); 38.9 min in series [2] (cE 1.0 U, 5.50·10^−9 M); 24.5 min in series [2] (cE 2.0 U, 1.10·10^−8 M); 14.3 min in series [2] (cE 3.0 U, 1.65·10^−8 M); 8.3 min in series [2] (cE 5.0 U, 2.75·10^−8 M). In addition, the “kobs. ± Δkobs.” value is given as “(2.97 ± 0.09)·10^−4 s^−1” in series [2] (cE 1.0 U, 5.50·10^−9 M); “(4.71 ± 0.10)·10^−4 s^−1” in series [2] (cE 2.0 U, 1.10·10^−8 M); “(8.11 ± 0.15)·10^−4 s^−1” in series [2] (cE 3.0 U, 1.65·10^−8 M); “(1.40 ± 0.04)·10^−3 s^−1” in series [2] (cE 5.0 U, 2.75·10^−8 M). In series [3], the “time” value is on record as 27 days.
Take `CC(C)C(=O)OCCOCn1cnc2c(=O)[nH]c(N)nc21` [iBut-ACV]: the “kobs. ± Δkobs. (pseudo-first-order rate constant of hydrolysis)” value in series [1] (human plasma 80%) was “(4.16 ± 0.16)·10^−4 s^−1”. In addition, the t0.5 in series [1] (human plasma 80%) was determined as 0.46 h; in series [2] (cE 0.5 U, 2.75·10^−9 M) it was 9.3 min; in series [2] (cE 1.0 U, 5.50·10^−9 M), 5.2 min; in series [2] (cE 2.0 U, 1.10·10^−8 M), 2.9 min; in series [2] (cE 3.0 U, 1.65·10^−8 M) it was 2.1 min. In addition, the “kobs. ± Δkobs.” value is “(1.24 ± 0.12)·10^−3 s^−1” in series [2] (cE 0.5 U, 2.75·10^−9 M); “(2.24 ± 0.09)·10^−3 s^−1” in series [2] (cE 1.0 U, 5.50·10^−9 M); “(3.98 ± 0.13)·10^−3 s^−1” in series [2] (cE 2.0 U, 1.10·10^−8 M); “(5.49 ± 0.20)·10^−3 s^−1” in series [2] (cE 3.0 U, 1.65·10^−8 M).
As for `CC(C)[C@H](N)C(=O)OCCOCn1cnc2c(=O)[nH]c(N)nc21` [valaciclovir], the t0.5 in series [4] is on record as 226 h.
